Assay results from PubChem BioAssay (NCI).
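Cells were grown in 96-well plates and exposed to each compound for 48 hours at five concentrations; endpoints were interpolated linearly between bracketing concentrations, or set to the highest concentration if not reached. TGI is the concentration that stops growth completely.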

Legend:
Experiment in all cases: inhibition of tumour cell growth, NCI panel, 48 h
[1] = tested on: 786-0 renal
[2] = tested on: A498 renal
[3] = tested on: A549 NSCLC
[4] = tested on: ACHN renal
[5] = tested on: CAKI-1 renal
[6] = tested on: CCRF-CEM leukemia
[7] = tested on: COLO 205 colon
[8] = tested on: DMS 114 small cell lung
[9] = tested on: DMS 273 small cell lung
[10] = tested on: EKVX NSCLC
[11] = tested on: HCT-15 colon
[12] = tested on: HL-60(TB) leukemia
[13] = tested on: HOP-18 NSCLC
[14] = tested on: HOP-62 NSCLC
[15] = tested on: HOP-92 NSCLC
[16] = tested on: HT29 colon
[17] = tested on: IGROV1 ovarian
[18] = tested on: K-562 leukemia
[19] = tested on: KM12 colon
[20] = tested on: KM20L2 colon
[21] = tested on: LOX IMVI melanoma
[22] = tested on: LXFL 529 NSCLC
[23] = tested on: M14 melanoma
[24] = tested on: M19-MEL melanoma
[25] = tested on: MALME-3M melanoma
[26] = tested on: MOLT-4 leukemia
[27] = tested on: NCI-H23 lung
[28] = tested on: NCI-H460 lung
[29] = tested on: NCI-H522 lung
[30] = tested on: OVCAR-3 ovarian
[31] = tested on: OVCAR-4 ovarian
[32] = tested on: OVCAR-5 ovarian
[33] = tested on: OVCAR-8 ovarian
[34] = tested on: RPMI-8226 leukemia
[35] = tested on: RXF 393 renal
[36] = tested on: RXF-631 renal
[37] = tested on: SF-268 CNS
[38] = tested on: SF-295 CNS
[39] = tested on: SF-539 CNS
[40] = tested on: SK-MEL-2 melanoma
[41] = tested on: SK-MEL-28 melanoma
[42] = tested on: SK-MEL-5 melanoma
[43] = tested on: SK-OV-3 ovarian
[44] = tested on: SN12C renal
[45] = tested on: SNB-19 CNS
[46] = tested on: SNB-75 CNS
[47] = tested on: SW-620 colon
[48] = tested on: TK-10 renal
[49] = tested on: U251 CNS
[50] = tested on: UACC-257 melanoma
[51] = tested on: UACC-62 melanoma
[52] = tested on: UO-31 renal
[53] = tested on: XF 498 CNS
[54] = tested on: DLD-1 colon
[55] = tested on: HCC-2998 colon
[56] = tested on: HCT-116 colon
[57] = tested on: NCI-H226 lung
[58] = tested on: SR leukemia

Measured: TGI

CN1c2ccccc2NC(CC(=O)O)C2CC=CN21 (centres undefined)
> 100 µM: [1] | [2] | [3] | [4] | [5] | [6] | [7] | [8] | [9] | [10] | [11] | [12] | [13] | [14] | [15] | [16] | [17] | [18] | [19] | [20] | [21] | [22] | [23] | [24] | [25] | [26] | [27] | [28] | [29] | [30] | [31] | [32] | [33] | [34] | [35] | [36] | [37] | [38] | [39] | [40] | [41] | [42] | [43] | [44] | [45] | [46] | [47] | [48] | [49] | [50] | [51] | [52] | [53]

Cc1nc2sccn2c1C(=O)N/N=C1\SCC(=O)N1C
> 100 µM: [1] | [3] | [4] | [5] | [6] | [7] | [54] | [8] | [9] | [10] | [55] | [56] | [11] | [12] | [13] | [14] | [15] | [16] | [17] | [18] | [19] | [20] | [21] | [22] | [24] | [25] | [26] | [57] | [27] | [28] | [29] | [30] | [32] | [33] | [34] | [35] | [36] | [37] | [38] | [39] | [40] | [41] | [42] | [43] | [44] | [45] | [58] | [47] | [48] | [49] | [50] | [51] | [53]

O=C(O)C1=CN=C(C(=O)O)NN1
> 100 µM: [1] | [3] | [4] | [5] | [6] | [7] | [54] | [8] | [10] | [56] | [11] | [12] | [13] | [14] | [15] | [16] | [17] | [18] | [19] | [20] | [22] | [23] | [24] | [25] | [26] | [57] | [27] | [28] | [29] | [30] | [31] | [33] | [34] | [35] | [36] | [37] | [38] | [39] | [40] | [41] | [42] | [43] | [44] | [45] | [46] | [58] | [47] | [48] | [49] | [50] | [51] | [52] | [53]
